The results in this text go back to patent US8188098B2, “GPR119 receptor agonists” (Hoffmann-La Roche Inc., priority 2008, dated 2012).

For orientation: EC50 means the concentration giving half of the maximal effect.

Structures are written as SMILES. Where a name gives a salt, the structure may show the parent alone.

The test addresses T1, GPR119 receptor (Mesocricetus auratus, UniProt A0A1U8CD06).
T1 construct: which endogenously express the GPR119 receptor; host or cells: HIT-T15 hamster pancreatic islet cells
T1 sequence (A0A1U8CD06 1-334): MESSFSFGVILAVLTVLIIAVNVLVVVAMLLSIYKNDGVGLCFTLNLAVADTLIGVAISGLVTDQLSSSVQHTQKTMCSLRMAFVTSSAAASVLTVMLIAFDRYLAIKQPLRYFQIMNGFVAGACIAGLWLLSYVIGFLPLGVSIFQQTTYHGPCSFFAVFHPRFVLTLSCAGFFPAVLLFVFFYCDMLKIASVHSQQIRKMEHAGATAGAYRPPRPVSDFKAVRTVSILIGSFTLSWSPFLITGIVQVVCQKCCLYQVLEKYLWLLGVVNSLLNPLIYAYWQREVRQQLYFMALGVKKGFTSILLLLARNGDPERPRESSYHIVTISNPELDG
Kind of test: cAMP assay in HIT-T15 hamster pancreatic islet cells (functional agonist activity). It counts as cell-based. As to conditions: HIT-T15 cells endogenously expressing GPR119; 30 min at 25° C.; intracellular cAMP. As for the experimental part: The functional agonist activities of compounds of the invention were characterized using a cAMP assay in HIT-T15 hamster pancreatic islet cells (American Type Culture Collection, Manassas, Va., USA) which endogenously express the GPR119 receptor. The cells were cultured in Kaighn's modification of Ham's F12 medium (Invitrogen Corporation, Carlsbad, Calif., USA) containing 10% horse serum, 2.5% FBS, and 1% Pen/Strep and grown in 225 cm^2 tissue culture flasks until they reached 75-85% confluence.
The cells were harvested 24 h prior to assay with 5 ml Versene®, washed with Kaighn/F12 medium and then plated into white 384-well plates (9000 cells/well) containing Kaighn/F12 medium. Prior to assay, the culture medium was replaced with a Kaighn/F12 medium without phenol red (50 μL/well) containing 0.5 mM 3-isobutyl-1-methylxanthine, 0.5 mg/ml BSA. The cells were incubated in the dark for 30 min at 25° C. in the absence or presence of varying concentrations of agonist (1 μL, 100% DMSO). The incubation media was discarded and replaced with the assay lysis buffer (50 μL/well) provided in the Tropix cAMP-Screen® kit (Applied Biosystems, Foster City, Calif., USA) and the plates incubated for 45 min at 37° C. The intracellular levels of cAMP generated in the HIT-T 15 cells were measured using the Tropix kit. In brief, 20 μL of the lysate was transferred into pre-coated antibody plates (384-well; Tropix kit) along with 10 μL of alkaline phosphatase conjugate and 20 μL of anti-cAMP antibody and the plates were incubated for 1 h at room temperature while shaking. The plates were then washed 5 times with wash buffer (70 μL) and tapped dry. CSPD®/Sapphire-II™ RTU substrate/enhancer solution (Applied Biosystems, Foster City, Calif., USA; 30 μL) was added and the plates were incubated for 45 min at room temperature while shaking. The signal generated was measured using a Wallac Victor V Luminometer (PerkinElmer Life And Analytical Sciences, Inc., Waltham, Mass., USA; 1 sec/well). EC50 values were calculated using the XLFit program (ID Business Solutions Ltd., Guildford, Surrey, UK).
For orientation: Cyclic AMP is a second messenger, typically raised through Gs and lowered through Gi signalling.
`CC(C)(C)OC(=O)N1CCC(n2ncc3c(Oc4ccc(C(N)=O)cc4)ncnc32)CC1` [Example 62, 4-[4-(4-Carbamoyl-phenoxy)-pyrazolo[3,4-d]pyrimidin-1-yl]-piperidine-1-carboxylic acid tert-butyl ester] had an EC50 of 0.65 µM.
On to `Cc1ncccc1Oc1ncnc2c1cnn2C1CCN(C(=O)OC2CCC2)CC1` [Example 116, 4-[4-(2-Methyl-pyridin-3-yloxy)-pyrazolo[3,4-d]pyrimidin-1-yl]-piperidine-1-carboxylic acid cyclobutyl ester], for which it took 0.55 µM to reach a half-maximal effect (EC50). This EC50 and that of the molecule before are within 1.5-fold of each other.
Molecule `Cc1nc(S(C)(=O)=O)ccc1Nc1ncnc2c1cnn2C1CCN(C(=O)OC(C)(C)C)CC1` [Example 8, 4-[4-(6-Methanesulfonyl-2-methyl-pyridin-3-ylamino)-pyrazolo[3,4-d]pyrimidin-1-yl]-piperidine-1-carboxylic acid tert-butyl ester] yielded an EC50 of 0.76 µM.
The value for `CS(=O)(=O)c1ccc(Oc2ncnc3c2cnn3C2CCN(C(=O)OC(CF)CF)CC2)cc1` [Example 109, 4-[4-(4-Methanesulfonyl-phenoxy)-pyrazolo[3,4-d]pyrimidin-1-yl]-piperidine-1-carboxylic acid 2-fluoro-1-fluoromethyl-ethyl ester] was 0.68 µM.
Turning to `CC(C)(C)OC(=O)N1CCCC(n2ncc3c(Oc4ccc(S(C)(=O)=O)cc4)ncnc32)C1` (racemic) [Example 87, 3-[4-(4-Methanesulfonyl-phenoxy)-pyrazolo[3,4-d]pyrimidin-1-yl]-piperidine-1-carboxylic acid tert-butyl ester], the EC50 is 0.37 µM.
The molecule `CC(C)OC(=O)N1CCC(n2ncc3c(Oc4cc(F)c(F)cc4F)ncnc32)CC1` [Example 16, 4-[4-(2,4,5-Trifluoro-phenoxy)-pyrazolo[3,4-d]pyrimidin-1-yl]-piperidine-1-carboxylic acid isopropyl ester] had a concentration giving a half-maximal response (EC50) of 0.21 µM.
The molecule `CC(C)(C)C(=O)N1CCC(n2ncc3c(Oc4cc(F)c(F)cc4F)ncnc32)CC1` [Example 137, 2,2-Dimethyl-1-{4-[4-(2,4,5-trifluoro-phenoxy)-pyrazolo[3,4-d]pyrimidin-1-yl]-piperidin-1-yl}-propan-1-one] registered an EC50 of 1.6 µM.
The value for `Cc1ncccc1Oc1ncnc2c1cnn2C1CCN(C(=O)OC2CCCC2)CC1` [Example 121, 4-[4-(2-Methyl-pyridin-3-yloxy)-pyrazolo[3,4-d]pyrimidin-1-yl]-piperidine-1-carboxylic acid cyclopentyl ester] was 0.26 µM; that for `CC(C)c1noc(N2CCC(n3ncc4c(Oc5ccc(S(C)(=O)=O)c(F)c5)ncnc43)CC2)n1` [Example 128, 4-(3-Fluoro-4-methanesulfonyl-phenoxy)-1-[1-(3-isopropyl-[1,2,4]oxadiazol-5-yl)-piperidin-4-yl]-1H-pyrazolo[3,4-d]pyrimidine] was 0.16 µM.
For the molecule `CS(=O)(=O)c1ccc(Oc2ncnc3c2cnn3C2CCN(C(=O)c3cccs3)CC2)cc1` [Example 155, {4-[4-(4-Methanesulfonyl-phenoxy)-pyrazolo[3,4-d]pyrimidin-1-yl]-piperidin-1-yl}-thiophen-2-yl-methanone], the EC50 is 1.6 µM.
As to `CC(C)(C)OC(=O)N1CCC(n2ncc3c(Oc4cncc(Cl)c4)ncnc32)CC1` [Example 100, 4-[4-(5-Chloro-pyridin-3-yloxy)-pyrazolo[3,4-d]pyrimidin-1-yl]-piperidine-1-carboxylic acid tert-butyl ester], the concentration for a half-maximal effect (EC50) is 1.8 µM.
The value for `Cc1nc(-n2cncn2)ccc1Oc1ncnc2c1cnn2C1CCN(C(=O)OC(C)(C)C)CC1` [Example 101, 4-[4-(2-Methyl-6-[1,2,4]triazol-1-yl-pyridin-3-yloxy)-pyrazolo[3,4-d]pyrimidin-1-yl]-piperidine-1-carboxylic acid tert-butyl ester] was 0.36 µM; that for `CC(C)(C)OC(=O)N1CCC(n2ncc3c(Oc4cnc5[nH]ccc5c4)ncnc32)CC1` [Example 72, 4-[4-(1H-Pyrrolo[2,3-b]pyridin-5-yloxy)-pyrazolo[3,4-d]pyrimidin-1-yl]-piperidine-1-carboxylic acid tert-butyl ester] was 1.2 µM.
The value for `CS(=O)(=O)c1ccc(Oc2ncnc3c2cnn3C2CCN(Cc3cccc(OC(F)(F)F)c3)CC2)cc1` [Example 162, 4-(4-Methanesulfonyl-phenoxy)-1-[1-(3-trifluoromethoxy-benzyl)-piperidin-4-yl]-1H-pyrazolo[3,4-d]pyrimidine] was 0.12 µM; that for `CS(=O)(=O)c1ccc(Oc2ncnc3c2cnn3C2CCN(C(=O)C(F)(F)F)CC2)cc1` [Example 148, 2,2,2-Trifluoro-1-{4-[4-(4-methanesulfonyl-phenoxy)-pyrazolo[3,4-d]pyrimidin-1-yl]-piperidin-1-yl}-ethanone] was 1.7 µM.
`Cc1ncccc1Oc1ncnc2c1cnn2C1CCN(C(=O)OC(C)C)CC1` [Example 27, 4-[4-(2-Methyl-pyridin-3-yloxy)-pyrazolo[3,4-d]pyrimidin-1-yl]-piperidine-1-carboxylic acid isopropyl ester] came in with an EC50 of 0.85 µM. This EC50 lies about 2-fold lower than the previous one.
As to `CS(=O)(=O)c1ccc(Oc2ncnc3c2cnn3C2CCN(Cc3ccc(F)cc3)CC2)cc1` [Example 159, 1-[1-(4-Fluoro-benzyl)-piperidin-4-yl]-4-(4-methanesulfonyl-phenoxy)-1H-pyrazolo[3,4-d]pyrimidine], the midpoint of the response, the EC50, lay at 0.2 µM.
The value for `CCc1cc(Oc2ncnc3c2cnn3C2CCN(C(=O)OC(C)(C)C)CC2)nc(C)n1` [Example 103, 4-[4-(6-Ethyl-2-methyl-pyrimidin-4-yloxy)-pyrazolo[3,4-d]pyrimidin-1-yl]-piperidine-1-carboxylic acid tert-butyl ester] was 3.4 µM; that for `Cc1ncccc1Oc1ncnc2c1cnn2C1CCN(C(=O)Oc2ccc([N+](=O)[O-])cc2)CC1` [Example 123, 4-[4-(2-Methyl-pyridin-3-yloxy)-pyrazolo[3,4-d]pyrimidin-1-yl]-piperidine-1-carboxylic acid 4-nitro-phenyl ester] was 2.7 µM.
The value for `CC(C)(C)OC(=O)N1CCC(n2ncc3c(Oc4cccnc4)ncnc32)CC1` [Example 91, 4-[4-(Pyridin-3-yloxy)-pyrazolo[3,4-d]pyrimidin-1-yl]-piperidine-1-carboxylic acid tert-butyl ester] was 1.2 µM.
The value for `CC(C)(C)OC(=O)N1CCCC(n2ncc3c(Oc4ccc(S(C)(=O)=O)cc4)ncnc32)C1` (single isomer, unassigned) [Example 89] was 0.21 µM; that for `Cc1ncccc1Oc1ncnc2c1cnn2C1CCN(C(=O)OC(C)C)CC1` [Example 28, 4-[4-(2-Methyl-pyridin-3-yloxy)-pyrazolo[3,4-d]pyrimidin-1-yl]-piperidine-1-carboxylic acid isopropyl ester hydrochloride salt] was 0.82 µM; that for `CC(C)(C)OC(=O)N1CCC(n2ncc3c(Oc4ccc(Cl)c(C(F)(F)F)c4)ncnc32)CC1` [Example 55, 4-[4-(4-Chloro-3-trifluoromethyl-phenoxy)-pyrazolo[3,4-d]pyrimidin-1-yl]-piperidine-1-carboxylic acid tert-butyl ester] was 0.15 µM.
Consider `CC(C)CCC(=O)N1CCC(n2ncc3c(Oc4ccc(S(C)(=O)=O)cc4)ncnc32)CC1` [Example 143, 1-{4-[4-(4-Methanesulfonyl-phenoxy)-pyrazolo[3,4-d]pyrimidin-1-yl]-piperidin-1-yl}-4-methylpentan-1-one], for which the EC50 turned out to be 0.44 µM.
The value for `COc1ccc(Oc2ncnc3c2cnn3C2CCN(C(=O)OC(C)(C)C)CC2)cn1` [Example 96, 4-[4-(6-Methoxy-pyridin-3-yloxy)-pyrazolo[3,4-d]pyrimidin-1-yl]-piperidine-1-carboxylic acid tert-butyl ester] was 1.5 µM.
As to `Cc1cc(Oc2ncnc3c2cnn3C2CCN(C(=O)OC(C)(C)C)CC2)ccc1NS(C)(=O)=O` [Example 68, 4-[4-(4-Methanesulfonylamino-3-methyl-phenoxy)-pyrazolo[3,4-d]pyrimidin-1-yl]-piperidine-1-carboxylic acid tert-butyl ester], the 50% effective concentration (EC50) was determined as 0.73 µM.
